# Numbered stars: 1 amine (or outer) side, 2 acyl side, 3 side chain; on linkers, the order of the positions; unused ones are H or OH. Peptide text beside a SMILES is read from it. * marks the point of attachment. C20 diacid = O=C(O)CCCCCCCCCCCCCCCCCCC(=O)*; γGlu = O=C(O)[C@H](CCC(=O)[*:2])N[*:1]; AEEA = NCCOCCOCC(=O)O
# Experiment: Assay (IV) determination of solubility
# Format: physicochemical
# Experimental: Assay (IV)—Determination of Solubility
# The mimylin peptide was dissolved in water at ˜500 nmol/ml and mixed 1:1 with a series of buffers (100 mM glycylglycine pH 3.0, 100 mM glycylglycine pH 4.0, 100 mM glycylglycine pH 5.0, 100 mM bistrispropane pH 6.0, 100 mM bistrispropane pH 6.5, 100 mM bistrispropane pH 7.0, 100 mM bistrispropane pH 7.5, 100 mM bistrispropane pH 8.0).
SMILES,Solubility (pH 3.0),Solubility (pH 4.0),Solubility (pH 5.0),Solubility (pH 6.0),Solubility (pH 6.5),Solubility (pH 7.0),Solubility (pH 7.5),Solubility (pH 8.0),solubility at 18 h (pH 5.0) [µM]
"CC(C)C[C@H](NC(=O)[C@H](C)NC(=O)[C@H](C)NC(=O)[C@@H](NC(=O)[C@H](CO)NC(=O)[C@H](CC(C)C)NC(=O)[C@H](CCC(=O)O)NC(=O)[C@H](CO)NC(=O)[C@H](C)NC(=O)COCCOCCNC(=O)COCCOCCNC(=O)COCCOCCNC(=O)COCCOCCNC(=O)CC[C@H](NC(=O)CCCCCCCCCCCCCCCCCCC(=O)O)C(=O)O)[C@@H](C)O)C(=O)NCC(=O)N[C@@H](CCCNC(=N)N)C(=O)N[C@@H](CC(C)C)C(=O)N[C@@H](CO)C(=O)N[C@@H](C)C(=O)N[C@@H](CCC(=O)O)C(=O)N[C@@H](CC(C)C)C(=O)N[C@@H](Cc1cnc[nH]1)C(=O)N[C@@H](CCC(=O)O)C(=O)N[C@@H](CC(C)C)C(=O)N[C@@H](C)C(=O)N[C@H](C(=O)N[C@@H](CC(C)C)C(=O)N1CCC[C@H]1C(=O)N[C@@H](CCCNC(=N)N)C(=O)N[C@H](C(=O)N[C@@H](CCC(=O)O)C(=O)N[C@H](C(=O)NCC(=O)N[C@@H](CO)C(=O)NCC(=O)N[C@@H](CO)C(=O)N1CCC[C@H]1C(N)=O)[C@@H](C)O)[C@@H](C)O)[C@@H](C)O [compound 44, [N-terminal(C20 diacid-gGlu-4xOEG), des1, 30S, 31G]mimylin] ({C20 diacid-γGlu-AEEA-AEEA-AEEA-AEEA}-ASELSTAALGRLSAELHELATLPRTETGSGSP-NH2)",≧200 μM,≧200 μM,≧200 μM,≧200 μM,≧200 μM,≧200 μM,≧200 μM,≧200 μM,
"CC(C)C[C@H](NC(=O)[C@H](C)NC(=O)[C@H](C)NC(=O)[C@@H](NC(=O)[C@H](CO)NC(=O)[C@H](CC(C)C)NC(=O)[C@H](CCC(=O)O)NC(=O)[C@H](CO)NC(=O)[C@H](C)N)[C@@H](C)O)C(=O)NCC(=O)N[C@@H](CCCNC(=N)N)C(=O)N[C@@H](CC(C)C)C(=O)N[C@@H](CO)C(=O)N[C@@H](C)C(=O)N[C@@H](CCC(=O)O)C(=O)N[C@@H](CC(C)C)C(=O)N[C@@H](Cc1cnc[nH]1)C(=O)N[C@@H](CCC(=O)O)C(=O)N[C@@H](CC(C)C)C(=O)N[C@@H](C)C(=O)N[C@H](C(=O)N[C@@H](CC(C)C)C(=O)N1CCC[C@H]1C(=O)N[C@@H](CCCNC(=N)N)C(=O)N[C@H](C(=O)N[C@@H](CCCCNC(=O)CC[C@H](NC(=O)CCCCCCCCCCCCCCCCCCC(=O)O)C(=O)O)C(=O)N[C@H](C(=O)NCC(=O)N[C@@H](CO)C(=O)NCC(=O)N[C@@H](CO)C(=O)N1CCC[C@H]1C(N)=O)[C@@H](C)O)[C@@H](C)O)[C@@H](C)O [compound 55, [des1, 27K(C20 diacid-gGlu), 30S, 31G]mimylin]",≧200 μM,≧200 μM,≧200 μM,≧200 μM,≧200 μM,≧200 μM,≧200 μM,≧200 μM,
"CC(C)C[C@H](NC(=O)[C@H](CO)NC(=O)CNC(=O)[C@H](CO)NC(=O)CNC(=O)[C@@H](NC(=O)[C@H](CCC(=O)O)NC(=O)[C@@H](NC(=O)[C@H](CCCNC(=N)N)NC(=O)[C@@H]1CCCN1C(=O)[C@H](CC(C)C)NC(=O)[C@@H](NC(=O)[C@H](C)NC(=O)[C@H](CC(C)C)NC(=O)[C@H](CCC(=O)O)NC(=O)[C@H](Cc1cnc[nH]1)NC(=O)[C@H](CC(C)C)NC(=O)[C@H](CCC(=O)O)NC(=O)[C@H](C)NC(=O)[C@H](CO)NC(=O)[C@H](CC(C)C)NC(=O)[C@H](CCCNC(=N)N)NC(=O)CNC(=O)[C@H](CC(C)C)NC(=O)[C@H](C)NC(=O)[C@H](C)NC(=O)[C@@H](NC(=O)[C@H](CO)NC(=O)[C@H](CC(C)C)NC(=O)[C@H](CCC(=O)O)NC(=O)[C@H](CO)NC(=O)[C@H](C)NC(=O)CC[C@H](NC(=O)CCCCCCCCCCCCCCCCCCC(=O)O)C(=O)O)[C@@H](C)O)[C@@H](C)O)[C@@H](C)O)[C@@H](C)O)C(N)=O [compound 62, [N-terminal(C20 diacid-gGlu), des1, 30S, 31G, 33L]mimylin] ({C20 diacid-γGlu}-ASELSTAALGRLSAELHELATLPRTETGSGSL-NH2)",≧200 μM,≧200 μM,≧200 μM,≧200 μM,≧200 μM,≧200 μM,≧200 μM,≧200 μM,

# The next lines start with the values.
Solubility (pH 3.0),Solubility (pH 4.0),Solubility (pH 5.0),Solubility (pH 6.0),Solubility (pH 6.5),Solubility (pH 7.0),Solubility (pH 7.5),Solubility (pH 8.0),solubility at 18 h (pH 5.0) [µM],SMILES
≧200 μM,≧200 μM,≧200 μM,≧200 μM,≧200 μM,≧200 μM,≧200 μM,≧200 μM,,"CC(C)C[C@H](NC(=O)[C@H](C)NC(=O)[C@H](C)NC(=O)[C@@H](NC(=O)[C@H](CO)NC(=O)[C@H](CC(C)C)NC(=O)[C@H](CCC(=O)O)NC(=O)[C@H](CO)NC(=O)[C@H](C)NC(=O)COCCOCCNC(=O)COCCOCCNC(=O)COCCOCCNC(=O)COCCOCCNC(=O)COCCOCCNC(=O)CC[C@H](NC(=O)CCCCCCCCCCCCCCCCCCC(=O)O)C(=O)O)[C@@H](C)O)C(=O)NCC(=O)N[C@@H](CCCNC(=N)N)C(=O)N[C@@H](CC(C)C)C(=O)N[C@@H](CO)C(=O)N[C@@H](C)C(=O)N[C@@H](CCC(=O)O)C(=O)N[C@@H](CC(C)C)C(=O)N[C@@H](Cc1cnc[nH]1)C(=O)N[C@@H](CCC(=O)O)C(=O)N[C@@H](CC(C)C)C(=O)N[C@@H](C)C(=O)N[C@H](C(=O)N[C@@H](CC(C)C)C(=O)N1CCC[C@H]1C(=O)N[C@@H](CCCNC(=N)N)C(=O)N[C@H](C(=O)N[C@@H](CCC(=O)O)C(=O)N[C@H](C(=O)NCC(=O)N[C@@H](CO)C(=O)NCC(=O)N[C@@H](CO)C(=O)N1CCC[C@H]1C(N)=O)[C@@H](C)O)[C@@H](C)O)[C@@H](C)O [compound 45, [N-terminal(C20 diacid-gGlu-5xOEG), des1, 30S, 31G]mimylin] ({C20 diacid-γGlu-AEEA-AEEA-AEEA-AEEA-AEEA}-ASELSTAALGRLSAELHELATLPRTETGSGSP-NH2)"
≧200 μM,≧200 μM,,≧200 μM,≧200 μM,≧200 μM,≧200 μM,≧200 μM,101,"CC(C)C[C@H](NC(=O)[C@H](C)NC(=O)[C@H](C)NC(=O)[C@@H](NC(=O)[C@H](CO)NC(=O)[C@H](CC(C)C)NC(=O)[C@H](CCC(=O)O)NC(=O)[C@H](CO)NC(=O)[C@H](C)NC(=O)CC[C@H](NC(=O)CCCCCCCCCCCCCCCCCCC(=O)O)C(=O)O)[C@@H](C)O)C(=O)NCC(=O)N[C@@H](CCCNC(=N)N)C(=O)N[C@@H](CC(C)C)C(=O)N[C@@H](CO)C(=O)N[C@@H](C)C(=O)N[C@@H](CCC(=O)O)C(=O)N[C@@H](CC(C)C)C(=O)N[C@@H](Cc1cnc[nH]1)C(=O)N[C@@H](CCC(=O)O)C(=O)N[C@@H](CC(C)C)C(=O)N[C@@H](C)C(=O)N[C@H](C(=O)N[C@@H](CC(C)C)C(=O)N1CCC[C@H]1C(=O)N[C@@H](CCCNC(=N)N)C(=O)N[C@H](C(=O)N[C@@H](CCC(=O)O)C(=O)N[C@H](C(=O)NCC(=O)N[C@@H](CO)C(=O)NCC(=O)N[C@@H](CO)C(=O)N[C@@H](Cc1ccccc1)C(N)=O)[C@@H](C)O)[C@@H](C)O)[C@@H](C)O [compound 61, [N-terminal(C20 diacid-gGlu), des1, 30S, 31G, 33F]mimylin] ({C20 diacid-γGlu}-ASELSTAALGRLSAELHELATLPRTETGSGSF-NH2)"

# From patent publication US9593149B2, “Amylin and calcitonin receptor agonist” (Novo Nordisk A/S, priority 2014, dated 2017)
